# Like-named read-outs stand apart in the source and are kept apart here.
# Legend:
# Atopobium vaginae = assay: MIC, agar dilution; format: cell-based; conditions: Fannyhessea vaginae
# Procedure: (§1) Micrococcus pyogenes (ATCC 11631), Bacillus subtilis (ATCC 11774), Lactobacillus iners (ATCC 55195), Escherichia coli (ATCC 11775), Proteus mirabilis (ATCC 14153), Klebsiella pneumoniae (ATCC 10031), Shigella sonnei (ATCC 11060), Neisseria gonorrhoeae (ATCC 19424), Salmonella typhimurium (ATCC 14028) Salmonella paratyphi B (ATCC 10719), Helicobacter pylori (ATCC 43504) and several strains of Atopobium vaginae and Gardnerella vaginalis.
# (§2) Strains were prepared from freeze-dried pellets. An isolation of the suspensions (to test the strains purity) and a strains massive growth were made by streaking microbial suspensions on agar media. The bacterial colonies on agar plates were collected with 3-5 mL of specific liquid medium+15% glycerol and then the aliquots were frozen at −80° C.
# (§3) Compounds Minimal Inhibitory Concentration (MIC) was determined through broth micro-dilution susceptibility testing with a method developed following the National Committee for Clinical Laboratory Standards (CLSI) M07-A8 and M11-A7 references. Assays were carried out in specific media (Table 3). The tests were performed either following the broth microdilution assay or the agar dilution assay. Compounds stock solutions were made at 12.8 mg/mL in DMSO 100%. A series of twofold dilutions were then prepared using the strain specific broth. Final concentrations were from 0.125 μg/mL to 64 μg/mL at 1% DMSO. MIC is defined as the lowest concentration of antibacterial agent which prevent any visible growth.
# Gardnerella vaginalis = assay: MIC, agar dilution; format: cell-based
# Procedure: as §1, §2, §3
# [1] = system: Salmonella typhimurium ATCC 14028; assay: MIC, broth microdilution; format: cell-based; conditions: Salmonella enterica
# Procedure: as §1, §2, §3
# Bacillus subtilis = assay: MIC, broth microdilution; format: cell-based
# Procedure: as §1, §2, §3
# [2] = system: Micrococcus pyogenes ATCC 11631; assay: MIC, broth microdilution; format: cell-based; conditions: Staphylococcus aureus, ATCC11631
# Procedure: as §1, §2, §3
# [3] = system: Salmonella paratyphi B ATCC 10719; assay: MIC, broth microdilution; format: cell-based; conditions: Salmonella enterica
# Procedure: as §1, §2, §3
# [4] = system: Neisseria gonorrhoeae ATCC 19424; assay: MIC, broth microdilution; format: cell-based; conditions: ATCC19424
# Procedure: as §1, §2, §3
# [5] = system: Klebsiella pneumonia ATCC 10031; assay: MIC, broth microdilution; format: cell-based; conditions: Klebsiella pneumoniae, ATCC10031
# Procedure: as §1, §2, §3
# [6] = system: Shigella sonnei ATCC 11060; assay: MIC, broth microdilution; format: cell-based; conditions: ATCC11060
# Procedure: as §1, §2, §3
# [7] = system: Escherichia coli ATCC 11775; assay: MIC, broth microdilution; format: cell-based; conditions: ATCC11775
# Procedure: as §1, §2, §3
# [8] = system: Lactobacillus iners ATCC 55195; assay: MIC, broth microdilution; format: cell-based; conditions: ATCC55195
# Procedure: as §1, §2, §3
# [9] = system: Helicobacter pylori ATCC 43504; assay: MIC, broth microdilution; format: cell-based; conditions: ATCC43504
# Procedure: as §1, §2, §3
# [10] = system: Proteus mirabilis ATCC 14153; assay: MIC, broth microdilution; format: cell-based; conditions: ATCC14153
# Procedure: as §1, §2, §3
# in vivo [11] = conditions: male, rat, iv, 2 mg/kg
# in vivo [12] = conditions: male, rat, po, 15 mg/kg
# [13] = system: Staphylococcus aureus (MRSA); assay: MIC, broth microdilution; format: cell-based
# Procedure: as §2, §3
# [14] = system: Gram positive and negative organisms; assay: Antimicrobial activity (MIC), overall comparison; format: cell-based; conditions: Tables 3 and 4, overall
# Source text: as §1, §3
# [15] = rat, in vivo
# Procedure: The pharmacokinetic profile of S- and R-nifuratel was assessed after intravenous administration (2 mg/kg) and oral gavage (15 mg/kg) in male rats.
# [16] = CCUG38953, agar dilution, Atopobium vaginae CCUG 38953, read-out: MIC
# [17] = CCUG42099, agar dilution, Atopobium vaginae CCUG 42099, read-out: MIC
# [18] = CCUG43049, agar dilution, Atopobium vaginae CCUG 43049, read-out: MIC
# [19] = CCUG44156, agar dilution, Atopobium vaginae CCUG 44156, read-out: MIC
# [20] = CCUG48515, agar dilution, Atopobium vaginae CCUG 48515, read-out: MIC
# [21] = CCUG55226, agar dilution, Atopobium vaginae CCUG 55226, read-out: MIC
# [22] = CCUG55227, agar dilution, Atopobium vaginae CCUG 55227, read-out: MIC
# [23] = ATCC14018, agar dilution, Gardnerella vaginalis ATCC 14018, read-out: MIC
# [24] = agar dilution, Gardnerella vaginalis C2, read-out: MIC
# [25] = agar dilution, Gardnerella vaginalis D2, read-out: MIC
# [26] = agar dilution, Gardnerella vaginalis E2, read-out: MIC
# [27] = agar dilution, Gardnerella vaginalis G2, read-out: MIC
# [28] = agar dilution, Gardnerella vaginalis H2, read-out: MIC
# [29] = agar dilution, Gardnerella vaginalis J2, read-out: MIC
# [30] = agar dilution, Gardnerella vaginalis K2, read-out: MIC
# [31] = broth microdilution, Salmonella typhimurium ATCC 14028, read-out: MIC
# [32] = broth microdilution, read-out: MIC
# [33] = broth microdilution, Micrococcus pyogenes ATCC 11631, read-out: MIC
# [34] = broth microdilution, Neisseria gonorrhoeae ATCC 19424, read-out: MIC
# [35] = broth microdilution, Klebsiella pneumonia ATCC 10031, read-out: MIC
# [36] = broth microdilution, Escherichia coli ATCC 11775, read-out: MIC
# [37] = broth microdilution, Lactobacillus iners ATCC 55195, read-out: MIC
# [38] = broth microdilution, Proteus mirabilis ATCC 14153, read-out: MIC
smiles,measurement,setting,value
"CSCC1CN(/N=C/c2ccc([N+](=O)[O-])o2)C(=O)O1 (racemic) [Nifuratel racemate, Nifuratel]",MIC,Atopobium vaginae; CCUG38953,0.125 µg/mL
same,MIC,Atopobium vaginae; CCUG39382,0.25 µg/mL
same,MIC,Atopobium vaginae; CCUG42099,0.5 µg/mL
same,MIC,Atopobium vaginae; CCUG43049,0.25 µg/mL
same,MIC,Atopobium vaginae; CCUG44061,0.5 µg/mL
same,MIC,Atopobium vaginae; CCUG44156,0.5 µg/mL
same,MIC,Atopobium vaginae; CCUG48515,1 µg/mL
same,MIC,Atopobium vaginae; CCUG55226,1 µg/mL
same,MIC,Atopobium vaginae; CCUG55227,0.25 µg/mL
same,MIC,"Gardnerella vaginalis; ATCC14018, agar dilution, Gardnerella vaginalis ATCC 14018",2 µg/mL
same,MIC,"Gardnerella vaginalis; agar dilution, Gardnerella vaginalis C2",8 µg/mL
same,MIC,"Gardnerella vaginalis; agar dilution, Gardnerella vaginalis D2",4 µg/mL
same,MIC,"Gardnerella vaginalis; agar dilution, Gardnerella vaginalis E2",2 µg/mL
same,MIC,"Gardnerella vaginalis; agar dilution, Gardnerella vaginalis G2",2 µg/mL
same,MIC,"Gardnerella vaginalis; agar dilution, Gardnerella vaginalis H2",1 µg/mL
same,MIC,"Gardnerella vaginalis; agar dilution, Gardnerella vaginalis J2",2 µg/mL
same,MIC,"Gardnerella vaginalis; agar dilution, Gardnerella vaginalis K2",4 µg/mL
same,MIC,[1],4 µg/mL
same,MIC,Bacillus subtilis,0.5 µg/mL
same,MIC,[2],1 µg/mL
same,MIC,[3],2 µg/mL
same,MIC,[4]; Neisseria gonorrhoeae,0.25 µg/mL
same,MIC,[5],2 µg/mL
same,MIC,[6],1 µg/mL
same,MIC,[7]; Escherichia coli,1 µg/mL
same,MIC,[8]; Lactobacillus iners,16 µg/mL
same,MIC,[9]; Helicobacter pylori,0.125 µg/mL
same,MIC,[10]; Proteus mirabilis,8 µg/mL
same,AUC(0-inf),in vivo [11],125 ng·h/mL
same,AUC(0-t),in vivo [11],122 ng·h/mL
same,Clast,in vivo [11],5 ng/mL
same,Cmax,in vivo [11],555 ng/mL
same,MRT,in vivo [11],13 min
same,Tlast,in vivo [11],120 min
same,Tmax,in vivo [11],2 min
same,VSR,in vivo [11],4.5 L/kg
same,clearance,in vivo [11],267 mL/min/kg
same,half-life,in vivo [11],24 min
same,AUC(0-t),in vivo [12],20.3 ng·h/mL
same,Clast,in vivo [12],3 ng/mL
same,Cmax,in vivo [12],8 ng/mL
same,MRT,in vivo [12],1.82 h
same,Tlast,in vivo [12],240 min
same,Tmax,in vivo [12],30 min
same,half-life,in vivo [12],182 min
"CSC[C@@H]1CN(/N=C/c2ccc([N+](=O)[O-])o2)C(=O)O1 [S-Nifuratel, (S)-Nifuratel]",MIC,[13],4 µg/mL
same,MIC,Atopobium vaginae; [16],0.25 µg/mL
same,MIC,"Atopobium vaginae; CCUG39382, agar dilution, Atopobium vaginae CCUG 39382, read-out: MIC",0.25 µg/mL
same,MIC,Atopobium vaginae; [17],0.5 µg/mL
same,MIC,Atopobium vaginae; [18],0.5 µg/mL
same,MIC,Atopobium vaginae; CCUG44061,0.125 µg/mL
same,MIC,Atopobium vaginae; [19],0.25 µg/mL
same,MIC,Atopobium vaginae; [20],1 µg/mL
same,MIC,Atopobium vaginae; [21],1 µg/mL
same,MIC,Atopobium vaginae; [22],0.5 µg/mL
same,MIC,Gardnerella vaginalis; [23],2 µg/mL
same,MIC,Gardnerella vaginalis; [24],8 µg/mL
same,MIC,Gardnerella vaginalis; [25],2 µg/mL
same,MIC,Gardnerella vaginalis; [26],2 µg/mL
same,MIC,Gardnerella vaginalis; [27],1 µg/mL
same,MIC,Gardnerella vaginalis; [28],2 µg/mL
same,MIC,Gardnerella vaginalis; [29],4 µg/mL
same,MIC,Gardnerella vaginalis; [30],4 µg/mL
same,MIC,[1]; [31],8 µg/mL
same,MIC,Bacillus subtilis; [32],1 µg/mL
same,MIC,[2]; [33],1 µg/mL
same,MIC,[3],4 µg/mL
same,MIC,[4]; [34],0.5 µg/mL
same,MIC,[5]; [35],4 µg/mL
same,MIC,[6],4 µg/mL
same,MIC,[7]; [36],2 µg/mL
same,MIC,[8]; [37],32 µg/mL
same,MIC,"[9]; broth microdilution, Helicobacter pylori ATCC 43504, read-out: MIC",0.25 µg/mL
same,MIC,[10]; [38],8 µg/mL
same,AUC(0-inf),in vivo [11],167 ng·h/mL
same,AUC(0-t),in vivo [11],166 ng·h/mL
same,Clast,in vivo [11],5 ng/mL
same,Cmax,in vivo [11],1150 ng/mL
same,MRT,in vivo [11],4 min
same,Tlast,in vivo [11],53 min
same,Tmax,in vivo [11],2 min
same,VSR,in vivo [11],0.9 L/kg
same,clearance,in vivo [11],203 mL/min/kg
same,half-life,in vivo [11],8 min
same,AUC(0-t),in vivo [12],32.6 ng·h/mL
same,Clast,in vivo [12],3 ng/mL
same,Cmax,in vivo [12],6 ng/mL
same,Tlast,in vivo [12],480 min
same,Tmax,in vivo [12],5 min
"CSC[C@H]1CN(/N=C/c2ccc([N+](=O)[O-])o2)C(=O)O1 [R-nifuratel, (R)-Nifuratel]",antimicrobial profile compared to nifuratel racemate or (S)-nifuratel,[14],better antimicrobial profile
same,MIC,[13],2 µg/mL
same,overall pharmacokinetic profile,[15],best pharmacokinetic profile
same,MIC,Atopobium vaginae; [16],0.25 µg/mL
same,MIC,Atopobium vaginae; CCUG39382,0.125 µg/mL
same,MIC,Atopobium vaginae; [17],0.25 µg/mL
same,MIC,Atopobium vaginae; [18],0.25 µg/mL
same,MIC,"Atopobium vaginae; CCUG44061, agar dilution, Atopobium vaginae CCUG 44061, read-out: MIC",0.25 µg/mL
same,MIC,Atopobium vaginae; [19],0.25 µg/mL
same,MIC,Atopobium vaginae; [20],0.5 µg/mL
same,MIC,Atopobium vaginae; [21],1 µg/mL
same,MIC,Atopobium vaginae; [22],0.25 µg/mL
same,MIC,Gardnerella vaginalis; [23],1 µg/mL
same,MIC,Gardnerella vaginalis; [24],4 µg/mL
same,MIC,Gardnerella vaginalis; [25],4 µg/mL
same,MIC,Gardnerella vaginalis; [26],1 µg/mL
same,MIC,Gardnerella vaginalis; [27],2 µg/mL
same,MIC,Gardnerella vaginalis; [28],1 µg/mL
same,MIC,Gardnerella vaginalis; [29],2 µg/mL
same,MIC,Gardnerella vaginalis; [30],4 µg/mL
same,MIC,[1]; [31],2 µg/mL
same,MIC,Bacillus subtilis; [32],0.25 µg/mL
same,MIC,[2]; [33],2 µg/mL
same,MIC,[3],1 µg/mL
same,MIC,[4]; [34],0.25 µg/mL
same,MIC,[5]; [35],2 µg/mL
same,MIC,[6],1 µg/mL
same,MIC,[7]; [36],1 µg/mL
same,MIC,[8]; [37],16 µg/mL
same,MIC,[9]; Helicobacter pylori,0.125 µg/mL
same,MIC,[10]; [38],8 µg/mL
same,AUC(0-inf),in vivo [11],750 ng·h/mL
same,AUC(0-t),in vivo [11],740 ng·h/mL
same,Clast,in vivo [11],43 ng/mL
same,Cmax,in vivo [11],4190 ng/mL
same,MRT,in vivo [11],7 min
same,Tlast,in vivo [11],75 min
same,Tmax,in vivo [11],2 min
same,VSR,in vivo [11],0.4 L/kg
same,clearance,in vivo [11],49 mL/min/kg
same,half-life,in vivo [11],11 min
same,AUC(0-t),in vivo [12],66.8 ng·h/mL
same,Clast,in vivo [12],3 ng/mL
same,Cmax,in vivo [12],34 ng/mL
same,MRT,in vivo [12],82.4 h
same,Tlast,in vivo [12],480 min
same,Tmax,in vivo [12],5 min
same,half-life,in vivo [12],236 min

# From patent US9284306B2, “(R)-Nifuratel, its use for the treatment of infections and synthesis of (R) and (S)-Nifuratel” (POLICHEM SA, priority 2012, dated 2016)
